Read-outs that look alike come from different tables or passages of the source.
Test: Pharmacokinetic analysis of Nec-1f in mice (tissue PK)
Type: in vivo, C57BL/6 mice
Conditions: for concentration at 120 min: sample collection 120 min
[1] = sample collection 240 min, individual mice
[2] = sample collection 360 min, individual mice
[3] = sample collection 480 min, individual mice
[4] = sample collection 1440 min, individual mice

CN1C(=O)C(Cc2c[nH]c3c(Cl)cccc23)NC1=S (centres unmarked) [Nec-1f]
concentration in blood [1]: 0 ng/mL | concentration in blood [2]: 0 ng/mL | concentration in blood [3]: 0 ng/mL | concentration in blood [4]: 0 ng/mL | concentration in brain (brain, sample collection 240 min, individual mice): 0 ng/mL | concentration in brain (brain, sample collection 360 min, individual mice): 0 ng/mL | concentration in brain (brain, sample collection 480 min, individual mice): 0 ng/mL | concentration in brain (brain, sample collection 1440 min, individual mice): 0 ng/mL | concentration in heart (heart, sample collection 0 min, individual mice): 0 ng/mL | concentration in heart (heart, sample collection 240 min, individual mice): 0 ng/mL | concentration in heart (heart, sample collection 360 min, individual mice): 0 ng/mL | concentration in heart (heart, sample collection 480 min, individual mice): 0 ng/mL | concentration in heart (heart, sample collection 1440 min, individual mice): 0 ng/mL | concentration in kidney (kidney, sample collection 0 min, individual mice): 0 ng/mL | concentration in kidney (kidney, sample collection 240 min, individual mice): 0 ng/mL | concentration in kidney (kidney, sample collection 360 min, individual mice): 0 ng/mL | concentration in kidney (kidney, sample collection 480 min, individual mice): 0 ng/mL | concentration in kidney (kidney, sample collection 1440 min, individual mice): 0 ng/mL | concentration in liver (liver, sample collection 0 min, individual mice): 0 ng/mL | concentration in liver (liver, sample collection 240 min, individual mice): 0 ng/mL | concentration in liver (liver, sample collection 360 min, individual mice): 0 ng/mL | concentration in liver (liver, sample collection 480 min, individual mice): 0 ng/mL | concentration in liver (liver, sample collection 1440 min, individual mice): 0 ng/mL | concentration in lung (sample collection 0 min, individual mice): 0 ng/mL | concentration in lung [1]: 0 ng/mL | concentration in lung [2]: 0 ng/mL | concentration in lung [3]: 0 ng/mL | concentration in lung [4]: 0 ng/mL | concentration at 240 min (male, C57BL/6, mouse, brain, intraperitoneal, 2 mg/kg, brain, sample collection 240 min, individual mice, read-out: concentration in brain): 0 ng/mL | concentration at 360 min (male, C57BL/6, mouse, brain, intraperitoneal, 2 mg/kg, brain, sample collection 360 min, individual mice, read-out: concentration in brain): 0 ng/mL | concentration at 480 min (male, C57BL/6, mouse, brain, intraperitoneal, 2 mg/kg, brain, sample collection 480 min, individual mice, read-out: concentration in brain): 0 ng/mL | concentration at 0 min (male, C57BL/6, mouse, brain, intraperitoneal, 2 mg/ml, brain, sample collection 0 min, individual mice, read-out: concentration in brain): 0 ng/mL | concentration at 5 min (male, C57BL/6, mouse, brain, intraperitoneal, 2 mg/ml, brain, sample collection 5 min, individual mice, read-out: concentration in brain): 11 ng/mL | concentration at 15 min (male, C57BL/6, mouse, brain, intraperitoneal, 2 mg/ml, brain, sample collection 15 min, individual mice, read-out: concentration in brain): 23 ng/mL | concentration at 120 min (male, C57BL/6, mouse, brain, intraperitoneal, 2 mg/ml, brain, individual mice, read-out: concentration in brain): 11 ng/mL | concentration at 1440 min (male, C57BL/6, mouse, brain, intraperitoneal, 2 mg/ml, brain, sample collection 1440 min, individual mice, read-out: concentration in brain): 0 ng/mL | concentration at 240 min (male, C57BL/6, mouse, heart, intraperitoneal, 2 mg/kg, heart, sample collection 240 min, individual mice, read-out: concentration in heart): 0 ng/mL | concentration at 360 min (male, C57BL/6, mouse, heart, intraperitoneal, 2 mg/kg, heart, sample collection 360 min, individual mice, read-out: concentration in heart): 0 ng/mL | concentration at 480 min (male, C57BL/6, mouse, heart, intraperitoneal, 2 mg/kg, heart, sample collection 480 min, individual mice, read-out: concentration in heart): 0 ng/mL | concentration at 1440 min (male, C57BL/6, mouse, heart, intraperitoneal, 2 mg/kg, heart, sample collection 1440 min, individual mice, read-out: concentration in heart): 0 ng/mL | concentration at 0 min (male, C57BL/6, mouse, heart, intraperitoneal, heart, sample collection 0 min, individual mice, read-out: concentration in heart): 0 ng/mL | concentration at 120 min (male, C57BL/6, mouse, heart, intraperitoneal, heart, individual mice, read-out: concentration in heart): 0 ng/mL | concentration at 240 min (male, C57BL/6, mouse, kidney, intraperitoneal, 2 mg/kg, kidney, sample collection 240 min, individual mice, read-out: concentration in kidney): 0 ng/mL | concentration at 360 min (male, C57BL/6, mouse, kidney, intraperitoneal, 2 mg/kg, kidney, sample collection 360 min, individual mice, read-out: concentration in kidney): 0 ng/mL | concentration at 480 min (male, C57BL/6, mouse, kidney, intraperitoneal, 2 mg/kg, kidney, sample collection 480 min, individual mice, read-out: concentration in kidney): 0 ng/mL | concentration at 1440 min (male, C57BL/6, mouse, kidney, intraperitoneal, 2 mg/kg, kidney, sample collection 1440 min, individual mice, read-out: concentration in kidney): 0 ng/mL | concentration at 0 min (male, C57BL/6, mouse, kidney, intraperitoneal, 2 mg/ml, kidney, sample collection 0 min, individual mice, read-out: concentration in kidney): 0 ng/mL | concentration at 120 min (male, C57BL/6, mouse, kidney, intraperitoneal, 2 mg/ml, kidney, individual mice, read-out: concentration in kidney): 0 ng/mL | concentration at 30 min (male, C57BL/6, mouse, kidney, intraperitoneal, 2 mg/ml, sample collection 30 min, individual mice): 51 ng/mL | half-life (male, C57BL/6, mouse, kidney, ip, mice, single i.p. injection 2 mg/kg): 3.52 h | concentration at 240 min (male, C57BL/6, mouse, liver, intraperitoneal, 2 mg/kg, liver, sample collection 240 min, individual mice, read-out: concentration in liver): 0 ng/mL | concentration at 360 min (male, C57BL/6, mouse, liver, intraperitoneal, 2 mg/kg, liver, sample collection 360 min, individual mice, read-out: concentration in liver): 0 ng/mL | concentration at 480 min (male, C57BL/6, mouse, liver, intraperitoneal, 2 mg/kg, liver, sample collection 480 min, individual mice, read-out: concentration in liver): 0 ng/mL

— paper PMC8292346, “Dysfunction of the key ferroptosis-surveilling systems hypersensitizes mice to tubular necrosis during acute kidney injury” (Nature Communications, 2021)
